Tests used:
MOLT-3 T-lymphoma cells = assay: Confocal laser scanning microscopy of mitotic spindle, MOLT-3; type: cell-based, human; conditions: 100 μM
Procedure: (§1) Immunofluorenscence was used to examine the spindle features of human cancer cell lines treated with Compound 003 or 0.5% DMSO. Initially, cells at log phase were seeded onto sterile 22 mm coverslips in six -well culture plates. 24 hours later, the cells were treated with compound 003 for 2 hours at 37° C., 5% C02, fixed in methanol (−20° C. 15 min) followed by a 15 minute incubation with PBS +0.1.% Tx-100. The coverslips were incubated with antibodies raised against α-tubulin, γ-tubulin (Sigma Chemical Co., St Louis, Mo.) (40 min 37° C.), washed in PBS-Tx-100, and incubated with an appropriate secondary antibody conjugated to FITC (Jackson ImmunoResearch, Westgrove, Pa.). Cellular DNA was labeled with 5 μM TOTO3 (Molecular Probes, Eugene, Oreg.) for 20 minutes. Coverslips were immediately inverted onto slides in Vectashield (Vector Labs, Burlingame, Calif.) to prevent photobleaching, sealed with nail varnish and stored at −20° C. The slides were examined using a Bio-Rad MRC-1024 Laser Scanning Confocal Microscope equipped with a Kr/Ar laser (BioRad, Hercules, Calif.) mounted on a Nikon Eclipse E800 upright microscope with high numerical aperture objectives (Nikon, Melville, N.Y.). Digital data were processed using Lasersharp (BioRad) and Adobe Photoshop software (Adobe Systems, Mountain View, Calif.). […]

[1] = system: MDA-MB breast cancer cells; assay: Confocal laser scanning microscopy of mitotic spindle, MDA-MB; type: cell-based, human
Procedure: as §1

[2] = system: DAUDI, human Burkitt's lymphoma; assay: DNA flow cytometry of cell cycle arrest, DAUDI; type: cell-based; conditions: 100 μM, 48 hour
Procedure: (§2) Exponentially growing tumor cells were cultured at 1×10^6 cells/ml in clonogenic medium (RPMI 1640 medium +1% penicillin/streptomycin +10% heat-inactivated fetal bovine serum, 2 mML-glutamine, and 10 mM Hepes buffer) in the presence or absence of 100 μM compound 003 for 48 hour at 37° C., 5% CO2. At 48 h, cells were washed two times in fresh clonogenic medium, trypsinized, fixed in ice cold ethanol and labeled with propidium iodide to quantify their DNA content, as described previously (See, for example, Navara, et al., 2001, Anticancer Drugs. 12:369). Quantitative DNA analysis was performed on a Becton Dickenson Calibur flow cytometer equipped with a Consort 40 computer using the COTFIT program, which includes CELLCY, a cell cycle distribution function that fits DNA content histograms and calculates-the percentages of cells in G, S, and GM phases of the cell cycle, as described, for example, in Uckun et al., 1996, J Biol Chem. 271, 6389.

[3] = system: human pre-B acute lymphoblastic leukemia (NALM-6); assay: DNA flow cytometry of cell cycle arrest, NALM-6; type: cell-based; conditions: 100 μM, 48 hour
Procedure: as §2

[4] = system: Microsomal or cytosolic fractions of Nalm6 cells; assay: Enzyme kinetics of Compound 003 metabolism in subcellular fractions, Nalm6; type: in vitro ADME, human
Procedure: 1−3×10^8 Nalm6 and BT20 cells were washed with PBS, resuspended in homogenizing buffer containing 10 mM Tris-HCl (pH 7.4) and 250 mM sucrose. Cells were sonicated and spun at 10,000×g, and the resulting supernatant was centrifuged again at 100,000×g to isolate microsomal and cytosolic fractions. The microsomal pellet was resuspended in a buffer containing 10 mM Tris-HCl (pH 7.4), 250 mM sucrose, 1 mM EDTA, and 20% glycerol. Microsomes or cytosols of Nalm6 (80 μg. and 86 μg, respectively) and BT20 cells (59 μg and 160 μg, respectively) were preincubated with or without 1 mM paraoxon in Tris-HCl buffer (pH 7.4) in a total volume of 250 μl for 10 minutes; 1. mM COMPOUND 003 was then added to the incubation mixture, and the reactions were allowed to proceed for another 30 minutes and terminated by addition of 125 μl of acetone. Protein precipitation was then removed by centrifugation; 100 μl of the supernatant was injected directly into the HPLC.
2.2.9 Enzyme Kinetics of Compound 003 Metabolism Microsomal or cytosolic fractions of Nalm6 and BT20 cells were incubated with COMPOUND 003 at various concentrations from 10 μM to 1.2 mM in similar reaction conditions as described above, except without the inhibitor. The reactions were allowed to proceed for 40 minutes. Km and Vmax in the Michaelis-Menten model were estimated by WinNonlin program (Scientific Consulting, Inc.)

Stability in plasma = type: in vitro ADME
Procedure: (§3) Plasma samples, simulated gastric fluid and intestinal fluids (United State Pharmacopeia XXII methods) were separately spiked with COMPOUND 003 to yield final concentrations of 500 μM. Spiked samples were incubated at 37° C. At a predetermined time (5, 10, 15, 30 60 and 120 minutes), an aliquot (200 μl) of the spiked plasma sample was extracted as described above.

[5] = Stability in simulated intestinal fluid; type: in vitro ADME
Procedure: as §3

For `COC(=O)C(C)NP(=O)(OCC1OC(n2cc(C)c(=O)[nH]c2=O)CC1N=[N+]=[N-])Oc1ccc(OC)cc1` (stereo not shown) [Compound 003, 3′-azidothymidine 5′-[p-methoxyphenylmethoxyalaninyl phosphate]], the mitotic spindle formation (MOLT-3 T-lymphoma cells) was “induced aberrant multipolar spindle formation”, the mitotic spindle formation [1] was “induced aberrant multipolar (instead of normal bipolar) spindle formation” and the cell cycle arrest [2] was “caused G2 arrest”. The cell cycle arrest [3] was “G2M cell cycle arrest”, the Km ([4]; cytosolic fraction) was 765 µM and the Vmax ([4]; cytosolic fraction) was 541 pmol/mg/min. The Km ([4]; microsomal fraction) was 163 µM, the Vmax ([4]; microsomal fraction) was 82.3 pmol/mg/min and the decomposition product (Stability in plasma) was “decomposed to mainly form ala-AZT-MP”. The stability (Stability in plasma; 500 μM, 37° C.) was “unstable in plasma”, the “share of Compound 003 decomposed” value (Stability in plasma; 500 μM, 37° C., within 5 minutes) was over 99% and the decomposition product ([5]; intestinal fluid) was “decomposed to form ala-AZT-MP”. For the same molecule, the stability ([5]; simulated intestinal fluid, 500 μM, 37° C.) was “unstable”.
